What is called MIC is the lowest concentration that inhibits growth of the organism. Low readings indicate a more susceptible organism, high ones a less susceptible organism.

The structures appear in SMILES notation. ≈ marks a conversion by molar mass, not a printed value. A value given as a limit tells only on which side of the number the result lay.

The test system of assay [1] is Mycobacterium tuberculosis. Nature of the assay: Antituberculosis activity against Mycobacterium tuberculosis H37Rv assessed as minimum anaerobicidal cancentration after 3 weeks. It counts as functional.
Assay [2] concerns Mycobacterium tuberculosis. Nature of the assay: Antituberculosis activity against Mycobacterium tuberculosis H37Rv after 2 weeks. The class given is functional. Particulars: 336 h.

Consider `Nc1c([N+](=O)[O-])nc2n1C[C@H](OCc1ccc(OC(F)(F)F)cc1)CO2`, for which, in assay [1], the MAC is above 100 µM. In assay [2], this molecule registered an MIC above 100 µM.
`O=[N+]([O-])c1nc2n(c1Br)C[C@H](OCc1ccc(OC(F)(F)F)cc1)CO2`: the MAC in assay [1] is 32.5 µM. Besides, in assay [2], the MIC stood at 25 µM (≈ 11 µg/mL).
In assay [2], `N#Cc1c([N+](=O)[O-])nc2n1C[C@H](OCc1ccc(OC(F)(F)F)cc1)CO2` came in with an MIC above 100 µM.
Same read-out and setting: the result for `O=[N+]([O-])c1nc2n(c1Cl)C[C@H](OCc1ccc(OC(F)(F)F)cc1)CO2` reads 25 µM (≈ 9.84 µg/mL).
Consider `O=[N+]([O-])c1cn2c(n1)OC[C@@H](OCc1ccc(OC(F)(F)F)cc1)C2` [PRETOMANID], for which the MAC in assay [1] is 8 µM. The same molecule showed a minimum inhibitory concentration (MIC) in assay [2] of 0.8 µM (≈ 0.287 µg/mL).

For the origin of these results see ChEMBL document CHEMBL1641439, “The effect of 5-substitution on the electrochemical behavior and antitubercular activity of PA-824” (2011).
